Columns and labels:
JAK1 = molecular target: T1, JAK1 (Homo sapiens, UniProt P23458); assay: JAK1 microfluidic kinase assay (Caliper EZ Reader II, FAM labeled peptide substrate); type: biochemical; conditions: IC50 JAK1 (5 nM) (1 m MATP), JAK1 5 nM, 1 mM ATP
T1 construct: purchased Carna Biosciences
Outline: (§1)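 Compounds, serially diluted 3-fold from 5 μM, were preincubated 10 min with enzyme at ambient temperature before reaction in HEPES/Brij35/MgCl2/DTT buffer (1% DMSO final), tuned to 10% peptide conversion. After EDTA stop, FAM-peptide phosphorylation was measured by Caliper EZ Reader II; IC50 fitted from percent-inhibition curves.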

JAK2 = molecular target: T2, JAK2 (Homo sapiens, UniProt O60674); assay: JAK2 microfluidic kinase assay (Caliper EZ Reader II, FAM labeled peptide substrate); type: biochemical
T2 construct: purchased Carna Biosciences
T2 sequence (O60674 whole entry): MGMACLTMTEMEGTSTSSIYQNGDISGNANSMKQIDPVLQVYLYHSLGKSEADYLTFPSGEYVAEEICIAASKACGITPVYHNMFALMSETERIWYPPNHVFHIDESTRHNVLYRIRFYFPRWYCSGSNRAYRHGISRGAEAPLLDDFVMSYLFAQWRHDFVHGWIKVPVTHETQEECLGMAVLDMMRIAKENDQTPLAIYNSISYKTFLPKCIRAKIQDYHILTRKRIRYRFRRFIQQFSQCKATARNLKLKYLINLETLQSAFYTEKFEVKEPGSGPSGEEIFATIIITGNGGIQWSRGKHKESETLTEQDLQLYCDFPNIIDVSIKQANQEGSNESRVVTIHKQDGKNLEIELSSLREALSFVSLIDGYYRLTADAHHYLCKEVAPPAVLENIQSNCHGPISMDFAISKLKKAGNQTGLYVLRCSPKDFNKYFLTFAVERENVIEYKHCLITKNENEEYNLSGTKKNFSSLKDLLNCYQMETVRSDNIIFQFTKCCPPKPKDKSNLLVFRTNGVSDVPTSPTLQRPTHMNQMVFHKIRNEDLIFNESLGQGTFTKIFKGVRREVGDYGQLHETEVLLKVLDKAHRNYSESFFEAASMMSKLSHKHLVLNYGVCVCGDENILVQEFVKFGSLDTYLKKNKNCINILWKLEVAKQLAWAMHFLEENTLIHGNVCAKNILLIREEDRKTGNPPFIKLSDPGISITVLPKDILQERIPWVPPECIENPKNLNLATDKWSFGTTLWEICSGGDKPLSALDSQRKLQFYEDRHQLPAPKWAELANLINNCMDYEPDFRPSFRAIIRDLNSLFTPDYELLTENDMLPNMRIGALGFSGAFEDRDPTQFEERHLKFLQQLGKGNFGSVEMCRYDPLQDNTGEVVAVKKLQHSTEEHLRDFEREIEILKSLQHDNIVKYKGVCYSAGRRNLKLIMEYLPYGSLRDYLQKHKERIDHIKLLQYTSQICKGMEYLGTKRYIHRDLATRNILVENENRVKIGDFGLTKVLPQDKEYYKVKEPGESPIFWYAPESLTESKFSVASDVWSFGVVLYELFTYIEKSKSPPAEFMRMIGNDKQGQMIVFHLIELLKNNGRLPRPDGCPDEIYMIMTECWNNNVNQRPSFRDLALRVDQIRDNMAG
Outline: as §1

JAK2V617F = molecular target: T3, JAK2V617F (Homo sapiens, UniProt O60674, V617F); assay: JAK2V617F microfluidic kinase assay (Caliper EZ Reader II, FAM labeled peptide substrate); type: biochemical; conditions: JAK2V617F 2.5 nM, 1 mM ATP
T3 construct: purchased Carna Biosciences
T3 sequence (O60674 whole entry V617F): as the sequence (O60674 whole entry) above, with V617F counted along it
Outline: as §1

[1] = Liver microsomes study, Phase I stability (RLM); type: in vitro ADME, rat; conditions: pH 7.4; rat liver microsomes 0.5 mg/mL, 1 μM test article; read-out: RLM Clint
Method: Commercially available liver microsomes (MsLM vendor: XENOTECH; RLM, DLM, MkL, HLM vendor: Corning) were used for study the Phase I stability of test articles. […] The reaction was initiated by addition of 80 μL of the NADPH regenerating system to 320 µL of each incubation mixture per time point. […] The 0-minute samples were prepared by addition of an 80 μL aliquot of each incubation mixture to 400 μL quench reagent to precipitate proteins. And then a 20 μL aliquot of the NADPH regenerating system was added. At 10, 30, and 90 minutes, the reaction will be stopped by the addition of cold acetonitrile solution containing tolbutamide and propanolol served as internal standard. The samples taken at all time points were centrifuged at 4000×g for 15 minutes. 80 μL of supernatant are taken into 96-well assay plates pre-added with 160 μL ultrapure water, and then analyzed by LC/MS/MS(Shimadzu LC30AD & API4000/API5000)). Concentrations of test articles, control compounds in the samples were determined by using LC/MS/MS) method. Plotting of the chromatograms and peak area integrations are carried out by Analyst (AB Sciex).
In the determination of the in vitro elimination constant, ke, of the control compounds, the analyte/internal standard peak area ratios will be converted to percentage remaining (% Remaining) with the following equation: […]
The slope was measured by the natural logarithm of the percentage of the residual compound and time, T½ and CLint were calculated according to the following formulas, V/M was equal to the 1/concentration of protein.

[2] = Liver microsomes study, Phase I stability (HLM); type: in vitro ADME, human; conditions: pH 7.4; human liver microsomes 0.5 mg/mL, 1 μM test article; read-out: HLM Clint
Outline: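 Rat or human liver microsomes were incubated with test article, and reactions started with an NADPH regenerating system. Samples at 0, 10, 30 and 90 minutes were quenched with cold acetonitrile and analyzed by LC/MS/MS. T½ and CLint came from the ln(% remaining) versus time slope, scaled by protein concentration.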

[3] = Rat pharmacokinetic study (intravenous and oral); type: in vivo; conditions: male, plasma, Sprague-Dawley rats, intravenous, 1 mg/kg, solution
Method: Pharmacokinetic profile of test articles in rodent were evaluated in fasted male ICR mouse and Sprague-Dawley rats. […] Typically, mice were dosed with 2 mg/kg and 10 mg/kg by intravenous injection and oral gavage, respectively. Rats were dosed with 1 mg/kg and 5 mg/kg by intravenous injection and oral gavage, respectively. Beagle dogs were dosed with 1 mg/kg and 5 mg/kg by intravenous injection and oral gavage, respectively. After dosing, blood samples were collected at each time point. For IV injection group, time points were set at 5, 15, 30 min, and then 1, 2, 4, 8 and 24 hours after dosing. For oral gavage group, timepoints were set at 15, 30 m, and then 1, 2, 4, 8, and 24 hours. Blood was collected into appropriately labeled tubes containing K2EDTA as the anticoagulant. Plasma was obtained within 1 hours of blood collection by centrifugation at 8000×g and 4° C. for 6 minutes, and then stored at −20° C. until analyzed by LCMS/MS for quantification.

TYK2 = molecular target: T4, TYK2 (Homo sapiens, UniProt P29597); assay: TYK2 microfluidic kinase assay (Caliper EZ Reader II, FAM labeled peptide substrate); type: biochemical; conditions: IC50 TYK2 ([…]) (1 mM ATP), TYK2 […], 1 mM ATP
T4 construct: purchased Carna Biosciences
T4 sequence (P29597 whole entry): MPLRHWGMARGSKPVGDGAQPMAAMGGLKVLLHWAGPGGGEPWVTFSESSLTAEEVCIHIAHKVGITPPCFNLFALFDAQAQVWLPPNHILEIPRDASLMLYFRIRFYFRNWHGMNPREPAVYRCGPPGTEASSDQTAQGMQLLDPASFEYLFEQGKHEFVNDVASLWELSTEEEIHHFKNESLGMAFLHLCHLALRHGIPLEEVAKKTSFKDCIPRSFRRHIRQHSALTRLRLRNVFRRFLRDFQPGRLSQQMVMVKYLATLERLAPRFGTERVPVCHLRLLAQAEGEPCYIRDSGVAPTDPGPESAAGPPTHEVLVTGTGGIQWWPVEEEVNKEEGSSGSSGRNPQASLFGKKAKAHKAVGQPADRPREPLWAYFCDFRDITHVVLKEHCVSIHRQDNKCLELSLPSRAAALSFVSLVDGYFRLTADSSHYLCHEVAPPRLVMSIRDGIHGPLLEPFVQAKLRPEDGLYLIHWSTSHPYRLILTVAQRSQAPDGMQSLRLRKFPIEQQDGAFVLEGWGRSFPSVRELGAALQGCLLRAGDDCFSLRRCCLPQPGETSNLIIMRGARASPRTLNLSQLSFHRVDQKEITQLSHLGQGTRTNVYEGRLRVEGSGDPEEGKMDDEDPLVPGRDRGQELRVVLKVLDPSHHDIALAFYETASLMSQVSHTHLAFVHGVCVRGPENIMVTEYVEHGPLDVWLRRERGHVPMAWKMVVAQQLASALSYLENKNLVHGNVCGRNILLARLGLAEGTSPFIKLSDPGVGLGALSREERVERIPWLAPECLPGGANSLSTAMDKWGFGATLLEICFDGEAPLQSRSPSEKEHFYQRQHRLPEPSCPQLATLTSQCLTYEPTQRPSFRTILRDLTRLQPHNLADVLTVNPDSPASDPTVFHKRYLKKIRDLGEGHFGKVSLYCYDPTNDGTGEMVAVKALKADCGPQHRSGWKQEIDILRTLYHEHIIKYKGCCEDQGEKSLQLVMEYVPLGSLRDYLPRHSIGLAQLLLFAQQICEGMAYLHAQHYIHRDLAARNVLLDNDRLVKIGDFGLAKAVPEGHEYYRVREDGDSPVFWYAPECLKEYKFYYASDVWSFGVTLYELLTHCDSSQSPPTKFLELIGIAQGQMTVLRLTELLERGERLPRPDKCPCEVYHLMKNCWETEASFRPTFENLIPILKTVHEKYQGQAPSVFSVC
Outline: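 Kinase activity was measured in 50 mM HEPES, 0.01% Brij35, 10 mM MgCl2, 2 mM DTT with enzyme set for 10% peptide conversion. Compounds (3-fold dilutions from 5 μM top, 1% DMSO) were pre-incubated 10 min at ambient temperature. Reaction times: JAK1 120 min, JAK2 20 min, JAK2V617F 30 min, TYK2 10 min. EDTA stop.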

CYP1A2 = molecular target: T5, CYP1A2 (Homo sapiens, UniProt P05177); assay: CYPs inhibition in pooled human liver microsomes, probe substrate Phenacetin; type: in vitro ADME
T5 construct: 0.2 mg/mL human liver microsomes was pre-incubated in 180 μL reaction mixture; from tissue; host or cells: pooled human liver microsomes
T5 sequence (P05177 1-516): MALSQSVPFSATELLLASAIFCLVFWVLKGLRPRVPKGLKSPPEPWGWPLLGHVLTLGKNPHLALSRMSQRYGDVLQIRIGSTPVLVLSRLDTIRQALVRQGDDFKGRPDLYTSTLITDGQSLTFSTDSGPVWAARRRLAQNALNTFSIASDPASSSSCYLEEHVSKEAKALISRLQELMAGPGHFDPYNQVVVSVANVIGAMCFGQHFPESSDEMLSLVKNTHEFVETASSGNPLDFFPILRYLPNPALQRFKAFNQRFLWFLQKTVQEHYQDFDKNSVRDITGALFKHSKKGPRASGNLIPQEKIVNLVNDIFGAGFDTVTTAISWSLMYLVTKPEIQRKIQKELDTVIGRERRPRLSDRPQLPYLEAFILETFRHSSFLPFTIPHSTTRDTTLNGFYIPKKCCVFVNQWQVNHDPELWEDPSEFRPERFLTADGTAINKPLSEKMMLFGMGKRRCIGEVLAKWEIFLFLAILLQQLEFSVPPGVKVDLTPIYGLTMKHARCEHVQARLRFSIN
Method: (§2) The inhibitory potential of test articles in pooled human liver microsomes was evaluated by the method using a cocktail of CYP substrates. […] For the negative control well, the test articles was replaced with 20 μL reaction buffer. After 10 min of pre-incubation at 37° C., 20 μL 10 mM NADPH cofactor was added to the pre-reaction mixtures. After another 10 min incubation, the reaction was stopped by adding 400 μL of ice cold acetonitrile solution containing tolbutamide and labetalol served as internal standards. The incubation mixtures were centrifuged at 4000×g for 20 min, and then the supernatants were analyzed by LC-MS/MS after dilution. SigmaPlot was applied to plot % control activity versus the test compound concentrations, and for non-linear regression analysis of the data. IC50 values of test articles were determined using 3-parameter logistic equation.

CYP2C9 = molecular target: T6, CYP2C9 (Homo sapiens, UniProt P11712); assay: CYPs inhibition in pooled human liver microsomes, probe substrate Diclofenac; type: in vitro ADME
T6 construct: 0.2 mg/mL human liver microsomes was pre-incubated in 180 μL reaction mixture; from tissue; host or cells: pooled human liver microsomes
Method: as §2

CYP2C19 = molecular target: T7, CYP2C19 (Homo sapiens, UniProt P33261); assay: CYPs inhibition in pooled human liver microsomes, probe substrate S-mephenytoin; type: in vitro ADME
T7 construct: 0.2 mg/mL human liver microsomes was pre-incubated in 180 μL reaction mixture; from tissue; host or cells: pooled human liver microsomes
T7 sequence (P33261 whole entry): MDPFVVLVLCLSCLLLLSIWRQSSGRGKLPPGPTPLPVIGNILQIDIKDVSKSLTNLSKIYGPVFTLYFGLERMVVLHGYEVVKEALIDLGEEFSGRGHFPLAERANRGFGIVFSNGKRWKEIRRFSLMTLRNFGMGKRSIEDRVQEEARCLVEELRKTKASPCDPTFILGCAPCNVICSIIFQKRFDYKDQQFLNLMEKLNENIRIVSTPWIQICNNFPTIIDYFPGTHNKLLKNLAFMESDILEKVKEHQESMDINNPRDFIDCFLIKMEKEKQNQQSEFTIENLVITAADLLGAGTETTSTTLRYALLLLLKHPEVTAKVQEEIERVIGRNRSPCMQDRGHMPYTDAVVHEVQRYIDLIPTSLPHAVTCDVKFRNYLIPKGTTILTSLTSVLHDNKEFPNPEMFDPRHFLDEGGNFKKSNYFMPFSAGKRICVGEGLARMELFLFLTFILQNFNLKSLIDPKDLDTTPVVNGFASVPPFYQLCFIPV
Method: as §2

CYP2D6 = molecular target: T8, CYP2D6 (Homo sapiens, UniProt P10635); assay: CYPs inhibition in pooled human liver microsomes, probe substrate Dextromethorphan; type: in vitro ADME
T8 construct: 0.2 mg/mL human liver microsomes was pre-incubated in 180 μL reaction mixture; from tissue; host or cells: pooled human liver microsomes
T8 sequence (P10635 whole entry): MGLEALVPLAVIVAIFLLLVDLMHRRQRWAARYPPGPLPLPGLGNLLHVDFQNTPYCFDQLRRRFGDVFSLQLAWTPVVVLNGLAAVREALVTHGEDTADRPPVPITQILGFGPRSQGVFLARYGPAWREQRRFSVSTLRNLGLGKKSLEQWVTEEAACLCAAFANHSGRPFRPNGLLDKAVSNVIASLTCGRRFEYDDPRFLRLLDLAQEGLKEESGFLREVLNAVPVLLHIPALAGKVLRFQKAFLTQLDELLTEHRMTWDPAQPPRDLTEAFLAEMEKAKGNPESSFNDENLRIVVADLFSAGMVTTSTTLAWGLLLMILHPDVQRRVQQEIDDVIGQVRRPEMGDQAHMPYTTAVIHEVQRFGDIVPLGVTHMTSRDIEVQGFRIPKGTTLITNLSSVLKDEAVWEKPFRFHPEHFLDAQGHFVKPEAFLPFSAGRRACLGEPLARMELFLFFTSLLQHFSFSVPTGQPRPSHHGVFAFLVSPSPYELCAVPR
Method: as §2

CYP3A4 = molecular target: T9, CYP3A4 (Homo sapiens, UniProt P08684); assay: CYPs inhibition in pooled human liver microsomes, probe substrate Midazolam; type: in vitro ADME
T9 construct: 0.2 mg/mL human liver microsomes was pre-incubated in 180 μL reaction mixture; from tissue; host or cells: pooled human liver microsomes
T9 sequence (P08684 whole entry): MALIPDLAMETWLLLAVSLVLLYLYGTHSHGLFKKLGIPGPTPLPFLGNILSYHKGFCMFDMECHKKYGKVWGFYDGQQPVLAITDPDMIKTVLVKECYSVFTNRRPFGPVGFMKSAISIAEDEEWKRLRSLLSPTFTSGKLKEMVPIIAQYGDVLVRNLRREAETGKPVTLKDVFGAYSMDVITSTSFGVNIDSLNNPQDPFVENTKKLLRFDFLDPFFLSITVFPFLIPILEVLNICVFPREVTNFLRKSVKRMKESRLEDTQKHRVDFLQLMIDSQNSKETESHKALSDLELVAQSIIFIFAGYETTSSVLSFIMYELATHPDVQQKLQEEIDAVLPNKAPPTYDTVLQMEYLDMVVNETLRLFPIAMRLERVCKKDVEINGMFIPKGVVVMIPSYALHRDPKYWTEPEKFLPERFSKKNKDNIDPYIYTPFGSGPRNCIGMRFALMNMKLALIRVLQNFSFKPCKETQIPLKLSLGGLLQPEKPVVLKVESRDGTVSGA
Method: as §2

[4] = IC50 JAK2 ([…]) (1 mM ATP), 1 mM ATP
[5] = IC50 JAK2 ([…]) (Km ATP), Km ATP

T1 sequence (P23458 whole entry): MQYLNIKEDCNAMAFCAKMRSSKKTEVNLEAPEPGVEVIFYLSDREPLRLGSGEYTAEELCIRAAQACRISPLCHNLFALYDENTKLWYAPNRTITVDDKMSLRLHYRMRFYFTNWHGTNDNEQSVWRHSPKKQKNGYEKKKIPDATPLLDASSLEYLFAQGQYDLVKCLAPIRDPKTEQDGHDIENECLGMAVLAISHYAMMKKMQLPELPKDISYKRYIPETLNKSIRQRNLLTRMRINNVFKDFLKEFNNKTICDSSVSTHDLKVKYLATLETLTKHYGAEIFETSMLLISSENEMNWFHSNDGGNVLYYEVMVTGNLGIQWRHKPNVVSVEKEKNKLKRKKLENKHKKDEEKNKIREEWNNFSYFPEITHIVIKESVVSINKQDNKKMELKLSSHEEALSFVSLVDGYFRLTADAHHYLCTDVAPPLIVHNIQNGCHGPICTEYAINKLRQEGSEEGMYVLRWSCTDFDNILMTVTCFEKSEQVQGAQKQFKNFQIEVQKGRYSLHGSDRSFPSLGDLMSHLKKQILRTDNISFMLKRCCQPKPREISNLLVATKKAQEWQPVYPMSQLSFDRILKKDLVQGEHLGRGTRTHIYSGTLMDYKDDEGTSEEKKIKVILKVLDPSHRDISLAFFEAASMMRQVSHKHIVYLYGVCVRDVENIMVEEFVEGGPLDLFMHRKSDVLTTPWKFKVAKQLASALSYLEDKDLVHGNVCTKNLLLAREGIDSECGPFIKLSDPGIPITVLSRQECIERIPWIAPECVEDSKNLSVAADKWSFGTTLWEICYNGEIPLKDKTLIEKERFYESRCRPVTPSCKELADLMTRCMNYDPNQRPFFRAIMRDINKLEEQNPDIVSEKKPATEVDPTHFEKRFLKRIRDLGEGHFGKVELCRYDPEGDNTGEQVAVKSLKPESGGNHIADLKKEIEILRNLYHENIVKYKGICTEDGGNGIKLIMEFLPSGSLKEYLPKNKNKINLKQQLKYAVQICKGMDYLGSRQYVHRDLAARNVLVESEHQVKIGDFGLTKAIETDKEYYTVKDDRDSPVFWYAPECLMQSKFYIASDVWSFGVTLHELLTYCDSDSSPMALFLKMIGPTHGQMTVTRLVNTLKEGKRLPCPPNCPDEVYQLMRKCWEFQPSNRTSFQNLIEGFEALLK

Row | SMILES | IC50 (JAK1) | IC50 (JAK2; [4]) | IC50 (JAK2; [5]) | IC50 (JAK2V617F) | microsomal CLint at 1 μM [1] | microsomal CLint at 1 μM [2] | AUC [3] | Vd [3] | clearance [3] | half-life [3] | IC50 (TYK2) | IC50 (CYP1A2) | IC50 (CYP2C9) | IC50 (CYP2C19) | IC50 (CYP2D6) | IC50 (CYP3A4)
1 | Cc1cnc(Nc2cnn(C3CCOCC3)c2)nc1-c1ccc(C(=O)NCC#N)cc1 [Example 26, N-(Cyanomethyl)-4-(5-methyl-2-((1-(tetrahydro-2H-pyran-4-yl)-1H-pyrazol-4-yl)amino)pyrimidin-4-yl)benzamide] | 14.1 nM | 1.03 nM | 0.33 nM | 31.1 nM | 17.1 µL/min/mg | 9.3 µL/min/mg | 1060 ng·h/mL | 0.6 L/kg | 15.8 mL/min/kg | 30 min | – | – | – | – | – | –
2 | Cc1cnc(Nc2cnn(CCO)c2)nc1-c1ccc(C(=O)N[C@H](C#N)C2CC2)cc1 [Example 215, (S)—N-(cyano(cyclopropyl)methyl)-4-(2-((1-(2-hydroxyethyl)-1H-pyrazol-4-yl)amino)-5-methylpyrimidin-4-yl)benzamide] | 5.7 nM | 41 nM | – | – | – | – | – | – | – | – | 28 nM | > 50000 nM | > 50000 nM | > 50000 nM | > 50000 nM | > 50000 nM

Further compounds by falling IC50 (JAK1), results first:

Row | IC50 (JAK1) | IC50 (JAK2; [4]) | IC50 (JAK2; [5]) | IC50 (JAK2V617F) | microsomal CLint at 1 μM [1] | microsomal CLint at 1 μM [2] | AUC [3] | Vd [3] | clearance [3] | half-life [3] | IC50 (TYK2) | IC50 (CYP1A2) | IC50 (CYP2C9) | IC50 (CYP2C19) | IC50 (CYP2D6) | IC50 (CYP3A4) | SMILES
3 | 37.5 nM | 95.5 nM | 3.2 nM | – | 132 µL/min/mg | 4.6 µL/min/mg | 624 ng·h/mL | 0.98 L/kg | 27.1 mL/min/kg | 26.4 min | – | – | – | – | – | – | Cc1cnc(Nc2cnn(C)c2)nc1-c1ccc(C(=O)NCC2(C#N)CC2)cc1 [Example 12, N-((1-Cyanocyclopropyl)methyl)-4-(5-methyl-2-((1-methyl-1H-pyrazol-4-yl)amino)pyrimidin-4-yl)benzamide]
4 | 4.61 nM | 1.73 nM | – | – | – | – | – | – | – | – | 17.4 nM | > 50000 nM | > 50000 nM | > 50000 nM | 19400 nM | > 50000 nM | COC[C@@H](C#N)NC(=O)c1ccc(-c2nc(Nc3cnn(C4CCN(C)CC4)c3)ncc2C)cc1 [Example 213, (R)—N-(1-Cyano-2-methoxyethyl)-4-(5-methyl-2-((1-(1-methylpiperidin-4-yl)-1H-pyrazol-4-yl)amino)pyrimidin-4-yl)benzamide]
5 | 4.33 nM | 48.7 nM | – | – | – | – | – | – | – | – | 48.2 nM | 44800 nM | > 50000 nM | > 50000 nM | 19000 nM | 21500 nM | CC[C@@H](C#N)NC(=O)c1ccc(-c2nc(Nc3cnn(CC#N)c3)ncc2C)cc1 [Example 55, (S)-4-(2-((1-(cyanomethyl)-1H-pyrazol-4-yl)amino)-5-methylpyrimidin-4-yl)-N-(1-cyanopropyl)benzamide]

Source: US12595253B2, “Benzamides of pyrazolylamino-pyrimidinyl derivatives, and compositions and methods thereof” (LYNK PHARMACEUTICALS CO. LTD., priority 2019, dated 2026)
